From patent US20110064773A1, “PHARMACEUTICAL COMPOSITIONS COMPRISING A THYROID HORMON AND THEIR THERAPEUTIC USE” (UNIVERSITE JOSEPH FOURIER, priority 2007, published 2011)

Key:
Wistar rats [1] = test: Growth rate (body weight) and food intake of Wistar rats; assay type: in vivo, rat
Experimental: Adult male rat bred in the animal room facilities of Laboratory of Fundamental and Applied Bioenergetics (Wistar strain) or purchased from Charles-River Laboratories, Domaine des oncins, L'ARBRESLE France [(genetically obese normoglycemic (Zucker or Fa/Fa) or diabetic (ZDF)] were caged individually in stainless steel hanging cages and maintained in a 22° C., 50±10% relative humidity and 12 h:12 h light:dark environment. All animals were fed ad libitum with a standard rat chow (Safe A04, Villemoisson, France) and tap water. Body mass and food intake were recorded twice/thrice a week and fresh food was provided at the same time to ensure minimal disturbance to the animals' food behavior.
Eight-week old rats (300 g±10 g) were anesthetized by simultaneous intraperitoneal injection of diazepam 4 mg/kg and ketamine 100 mg/kg. In order to maintain body temperature during the surgery (10 min), animals were placed on a warm blanket. After interscapular shaving, a small incision of 0.5 cm of the skin allows the subcutaneous implantation of a small pellet (containing rT3 or 3′,3-T2) with a 10-gauge precision trochar. The pellets, manufactured by Innovative Research of America (Sarasota, Fla., USA) are constituted of a biodegradable matrix that effectively and continuously release the active product in the animal.
[…] (reverseT3) or 3-3′ diiodothyronine (3-3′ T2) were used at different doses (5, 0.5, or 0.1 mg/pellet) were implanted in order to provide a continuous and constant drug delivery over 60 days (which represents 25 μg, 2.5 μg or 0.5 μg/day/100 g BW).
Wistar rats were treated with rT3 hormone by a daily intraperitoneal injection (IP) (25 μg/100 g BW), a daily sub-cutaneous injection (SC) (25 μg/100 g BW), or a per os administration included in the rat food (25 μg/100 g BW). The continuous and constant administration was performed by using a pellet (25 μg/100 g BW).
However the role of the administration site was further investigated by comparing continuous administration of rT3 by osmotic pump implanted either subcutaneously or intraperitonally with the reference treatment administered by sub-cutaneous pellets. Wistar rats were treated for 21 days with placebo, sub-cutaneous pellet or sub-cutaneous or intraperitoneal osmotic pumps. rT3 was administered continuously (2.5 μg/100 g).
Wistar rats were treated by a continuous and constant administration of low doses of rT3 by 3 different methods of administration: • a sub-cutaneous pellet, • an osmotic pump placed under the skin, and • an osmotic pump placed in the peritoneal cavity.

Wistar rats [2] = test: Indirect calorimetry (energy expenditure, respiratory quotient) of Wistar rats; assay type: in vivo, rat; settings: 25 μg/100 g BW pellet, vs placebo
Excerpt: Energy expenditure as well as the nature of substrate oxidized (carbohydrates or lipids) were investigated by indirect calorimetry. This principle is based on the determinations of CO2 release (VCO2) and O2 consumption (VO2) by each animal. It assumes that O2 is entirely involved in substrate oxidation in the respiratory chain (leading to water production) while CO2 release is related to substrate decarboxylation (in the Krebs' cycle). These measurements allow assessing energy expenditure (EE) and respiratory quotient ([…], RQ). EE represent the absolute energy dissipation during rest and activity. RQ is a relative measurement indicating the ratio of carbohydrate versus lipid involved in oxidative pathway. A ratio of 1.0 indicates exclusive carbohydrate oxidation while a ratio of 0.7 indicates exclusive lipid oxidation. Each value between these two extreme values indicates the relative proportion of each substrate (of note protein oxidation was not evaluated). As an example, RQ approaches 0.7 during fasting, indicating lipid oxidation, conversely after feeding RQ increases close to 1 indicating carbohydrate oxidation resulting from food intake and blood insulin rise. Likewise, animals fed high-carbohydrate diets have higher RQs than those fed high-fat diets.
The indirect calorimetry system (Panlab, Barcelona, Spain) consists of cages, pumps, flow controllers, valves, and analyzers. It is computer-controlled in order to sequentially measure O2 and CO2 concentrations as well as air flow in four separate cages allowing four simultaneous determinations. Rats are isolated in one of the four metabolic chambers, and room air is used as a reference to monitor ambient O2 and CO2 concentrations periodically.
At predefined intervals, the computer sends a signal to store differential CO2 and O2 concentrations, flow rate, allowing computing VCO2, VO2, RQ, and EE (Weir equation) with data acquisition hardware (Metabolism, Panlab, Barcelona, Spain).

Wistar rats [3] = test: Body composition (adipose tissues, skeletal muscles, brown adipose tissue) of Wistar rats; assay type: in vivo, rat; settings: three weeks, vs placebo
Excerpt: (§1) At the end of the experimental period, animals were sacrificed by decapitation, in order to avoid the well-known effects of general anesthetics on mitochondrial metabolism. Blood samples were immediately collected and plasma was frozen for subsequent determination of serum metabolites and hormones. Liver, muscles and fat depots were quickly excised and weighed. Liver median lobe was rapidly freeze-clamped. Muscles (plantaris, soleus and gastrocnemius) were frozen in isopentane precooled in liquid nitrogen. Mesenteric fat consisted of adipose tissue surrounding the gastro-intestinal tract from the gastro-oesophageal sphincter to the end of the rectum with special care taken in distinguishing and removing the pancreas. Retroperitoneal fat pad was taken as the distinct depot behind each kidney along the lumbar muscles. Epididymal fat consisted of adipose tissue on top of the epididymis. For subcutaneous depot measurement, a rectangular piece of skin was taken on the right side of each animal from the median line of the abdomen between the spine and the right hip to the first rib. Interscapular brown adipose tissue was removed and dissected free from adjacent muscles and white adipose tissue. The heart ventricles, the right kidney and the spleen were also excised, weighed and frozen.

liver mitochondria = test: Rate of liver mitochondrial oxygen consumption (JO2) of treated Wistar rats; assay type: in vivo, rat; settings: high dose 250 μg/kg BW/day, various substrates, vs placebo
Experimental: (§2) The major part of the liver and the red part of each quadriceps were rinsed, and chopped into isolation medium (250 mM sucrose, 20 mM Tris-HCl and 1 mM EGTA-Tris, pH 7.4). Nuclei and cell debris were removed by centrifugation at 800 g for 10 min. Mitochondria were then isolated from the supernatant by spinning twice at 8,000 g for 10 minutes. The mitochondrial pellet was resuspended in 0.5 ml of isolation buffer and kept on ice. Mitochondrial protein was measured by the bicinchoninic acid method (Pierce, Rockford, Ill.). The final mitochondrial suspensions were maintained on ice and were used for measurements of oxygen consumption rate.
(§3) The rate of mitochondrial oxygen consumption (JO2) was measured at 30° C. in an incubation chamber with a Clark-type O2 electrode filled with 2 ml of incubation medium (125 mM KCl, 10 mM Pi-Tris, 20 mM Tris-HCl, 0.1 mM EGTA, pH 7.2). All measurements were performed using mitochondria (1.0 or 0.2 mg mitochondrial protein/ml for liver and skeletal muscle) incubated either with various substrates: glutamate/malate (5 mM/2.5 mM) and succinate (5 mM), alone or in combination, palmitoyl carnitine (55 μM) and octanoyl carnitine (100 μM). For each substrate, JO2 was recorded in the presence of the substrate alone (State 2) and following the addition of 1 mM ADP (state 3). Oligomycin (1.25 μg/mg protein) was added to the mitochondrial suspension to determine the non-phosphorylating respiratory rate (state 4). The incubation medium was constantly stirred with a built-in electromagnetic stirrer and bar flea. The efficiency of the mitochondrial oxidative phosphorylation was assessed by the state 3/state 4 ratio which measures the degree of control imposed on oxidation by phosphorylation (respiratory control ratio, RCR).

muscle mitochondria = test: Rate of muscle mitochondrial oxygen consumption (JO2) of treated Wistar rats; assay type: in vivo, rat; settings: 250 μg/kg BW/day, vs placebo
Experimental: as §2, §3

Wistar rats [4] = test: Plasma concentrations of glucose, triglycerides, cholesterol, FFA and HDL in Wistar rats; assay type: in vivo, rat; settings: day of sacrifice, vs placebo
Excerpt: These measurements were done on venous blood of the rats the day of the sacrifice.
as §1
Glucose and 3-hydroxybutyrate (3-HB) were measured enzymatically and non esterified fatty acid (NEFA) by colorimetric assay (Wako Chemicals).
Triglycerides and cholesterol were measured by classical routine automate apparatus.

[5] = test system: normal rats receiving a high-fat diet; settings: daily peritoneal injection, vs untreated rats; cited from earlier work
[6] = test system: nuclear receptors of the thyroid hormones, TRα-1 and TRβ-1; settings: literature statements; cited from earlier work
[7] = high dose 25 μg/100 g BW pellet
[8] = Wistar rats, high dose 250 μg/kg BW/day

For `N[C@@H](Cc1ccc(Oc2ccc(O)c(I)c2)c(I)c1)C(=O)O` [3,3′-T2, 3′,3-diiodothyronine], which “Food intake immediately after the pellet” value (Wistar rats [1]; 25 μg/100 g BW pellet, from day 4 until day 7) is on record?
The value was “decrease”.

What about the “Food intake (appetite)” value (Wistar rats [1]; high dose 25 μg/100 g BW pellet, 21 days, vs placebo) of the same compound?
The value was “higher value as compared to those of placebo animals”.

What about the “Growth rate (body weight)” value (Wistar rats [1]; high dose 25 μg/100 g BW, subcutaneous pellet, 21 days, vs placebo) of the same compound?
The value was “did not show any weight gain”.

What about the “Respiratory quotient (RQ) during the day (diurnal period)” value (Wistar rats [2]) of the same compound?
The value was “lower than that of placebo”.

What about the “Respiratory quotient (RQ) during the night” value (Wistar rats [2]) of the same compound?
Its value is “almost the same as those described for rT3”.

What about the Fat mass (Wistar rats [3]; 250 μg/kg BW pellet) of the same compound?
Its Fat mass is “significantly decreased”.

What about the “Brown adipose tissue mass” value (Wistar rats [3]; [7]) of the same compound?
The value was “significantly increased”.

What about the “Muscle mass (lean body mass)” value (Wistar rats [3]; [7]) of the same compound?
Its value is “not affected”.

What about the “Liver mitochondrial respiratory rate, non-phosphorylating (state 4, oligomycin)” value (liver mitochondria) of the same compound?
Its value is “much higher as compared to placebo”.

And the “Liver mitochondrial respiratory rate, phosphorylating (state 3, ADP)” value (liver mitochondria)?
Its value is “very significant increased respiratory rate”.

What about the “Muscle mitochondrial respiration, non-phosphorylating (state 4)” value (muscle mitochondria) of the same compound?
Its value is “failed to substantially affect”.

And the “Muscle mitochondrial respiration, phosphorylating (state 3)” value (muscle mitochondria)?
Its value is “failed to substantially affect”.

And the Cholesterol plasmatic concentration (Wistar rats [4]; Wistar rats, 250 μg/kg BW/day)?
The Cholesterol plasmatic concentration was “significantly lower”.

And the “Plasma free fatty acids (FFA)” value (Wistar rats [4]; [8])?
Its value is “higher”.

What about the Triglycerides plasmatic concentration (Wistar rats [4]; [8]) of the same compound?
Its Triglycerides plasmatic concentration is “significantly lower”.

What about the “Fasting glucose plasmatic concentration” value (Wistar rats [4]; normal (non diabetic) Wistar rats, 250 μg/kg BW/day) of the same compound?
The value was “slightly increased”.

Which Fat deposit [5] does the source give for `NC(Cc1cc(I)c(Oc2ccc(O)cc2)c(I)c1)C(=O)O` (centres unmarked) [3,5-T2] here?
The Fat deposit was “less fat deposit”.

And the Weight gain [5]?
The Weight gain was “gained less weight”.

With `N[C@@H](Cc1cc(I)c(Oc2ccc(O)c(I)c2)c(I)c1)C(=O)O` [T3] as the compound, how does the “Binding to the nuclear (TH) receptors” value [6] read?
The value was “binds very efficiently”.

With `N[C@@H](Cc1cc(I)c(Oc2cc(I)c(O)c(I)c2)c(I)c1)C(=O)O` [T4, thyroxine] as the compound, how does the “Binding to the nuclear (TH) receptors” value [6] read?
Its value is “binds less efficiently”.
